Data from paper PMC12775434, “Ultra-large virtual screening unveils potent agonists of the neuromodulatory orphan receptor GPR139” (Nature Communications, 2025).
Several values for one entry are separate records, joined by “and”; a condition that tells them apart may be missing. Identical values can stand only once. Like-named read-outs stand apart in the source and are kept apart here.

Columns and labels:
Assay type in all cases: cell-based
GPR139 [1] = target: T1, GPR139 (Homo sapiens, UniProt Q6DWJ6); assay: Ca2+ mobilization assay, agonist mode, stable GPR139-CHOk1 cell line; details: for Emax: normalized to Lundbeck Cmp 1a, read-out: Emax (%) Ca2+
T1 sequence (Q6DWJ6 1-353): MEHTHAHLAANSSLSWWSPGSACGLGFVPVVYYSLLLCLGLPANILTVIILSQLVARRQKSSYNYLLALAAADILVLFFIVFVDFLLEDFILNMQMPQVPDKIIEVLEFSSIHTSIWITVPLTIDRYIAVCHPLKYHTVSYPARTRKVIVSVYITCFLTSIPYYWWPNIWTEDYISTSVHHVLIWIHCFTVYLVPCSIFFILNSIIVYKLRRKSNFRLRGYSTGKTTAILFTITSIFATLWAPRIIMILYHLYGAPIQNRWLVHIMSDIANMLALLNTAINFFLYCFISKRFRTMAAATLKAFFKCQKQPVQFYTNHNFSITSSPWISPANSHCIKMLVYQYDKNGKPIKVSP
Outline: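 Agonist activity of compounds is assessed in stably transfected CHO-K1 cells using the calcium dye Fluo-4 at 37 °C in HEPES-buffered HBSS (pH 7.4). Efficacy is expressed relative to the reference agonist Lundbeck Cmp 1a, set as 100%.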

GPR139 [2] = target: T1, GPR139; assay: Ca2+ mobilization assay, antagonist mode (EC80 800 nM Lundbeck Cmp 1a after 20 min preincubation), GPR139-CHOk1
Outline: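 Fluo-4-loaded GPR139-CHOk1 cells in HEPES-buffered HBSS (pH 7.4, 2.5 mM probenecid) given test compounds at 10 µM, then after 20 min challenged with 800 nM Lundbeck Cmp 1a (EC80). Calcium fluorescence read at 37 °C, 485/525 nm.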

[3] = target: T2, human muscarinic acetylcholine M1 receptor (M1R) (Homo sapiens, UniProt P11229); assay: Ca2+ mobilization counter-screen in M1R-CHOk1 cells
T2 sequence (P11229 1-460): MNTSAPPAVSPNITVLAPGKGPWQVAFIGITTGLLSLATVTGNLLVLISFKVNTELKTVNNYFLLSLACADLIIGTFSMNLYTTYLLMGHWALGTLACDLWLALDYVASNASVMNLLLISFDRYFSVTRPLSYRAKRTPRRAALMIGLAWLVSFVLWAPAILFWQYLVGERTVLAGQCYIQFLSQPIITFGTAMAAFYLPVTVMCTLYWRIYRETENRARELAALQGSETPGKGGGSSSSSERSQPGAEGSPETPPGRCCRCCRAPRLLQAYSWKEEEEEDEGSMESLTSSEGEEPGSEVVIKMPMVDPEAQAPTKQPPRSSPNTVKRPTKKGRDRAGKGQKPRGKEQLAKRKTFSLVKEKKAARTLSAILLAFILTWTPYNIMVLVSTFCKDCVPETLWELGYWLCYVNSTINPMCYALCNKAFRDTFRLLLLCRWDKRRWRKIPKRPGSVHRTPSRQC
Outline: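 Intracellular calcium is tracked by Fluo-4 fluorescence at 37 °C in M1R-CHOk1 cells, with compounds dispensed automatically once baseline is taken. Buffer is HBSS with 20 mM HEPES, pH 7.4, plus 2.5 mM probenecid.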

[4] = Agonist mode, individual replicates (Supplementary Figure 4)
[5] = Supplementary Table 2, mean ± SEM
[6] = log [Compound] M = -4.5, individual replicate columns
[7] = log [Compound] M = -5.0, individual replicate columns
[8] = log [Compound] M = -5.5, individual replicate columns
[9] = log [Compound] M = -6.0, individual replicate columns
[10] = log [Compound] M = -6.5, individual replicate columns
[11] = log [Compound] M = -7.0, individual replicate columns
[12] = log [Compound] M = -7.5, individual replicate columns
[13] = log [Compound] M = -8.0, individual replicate columns
[14] = log [Compound] M = -8.5, individual replicate columns
[15] = log [Compound] M = -9.0, individual replicate columns
[16] = individual replicates (Supplementary Figure 4)
[17] = individual replicates (Supplementary Figure 5)

CC(NC(=O)Cn1cc(-c2cccs2)nn1)c1ccccc1 (stereo not drawn) [Compound 1.38, CC(NC(=O)CN1C=C(N=N1)C2=CC=CS2)C=3C=CC=CC3]
Ca2+ signal (% of Cmp 1a) (GPR139 [1]; [4]): 54 % of Cmp 1a and 77 % of Cmp 1a and 68 % of Cmp 1a
fold decrease in potency on substitution of the central oxadiazole ring (GPR139 [1]; Ca2+ mobilization): 7 fold
EC50 (GPR139 [1]; GPR139-CHOk1, read-out: EC50, Ca2+ mobilization): 1300 nM
Emax (GPR139 [1]; [5]): 82 ± 7%
Ca2+ signal (% of Cmp 1a) (GPR139 [1]; [6]): 92 % of Cmp 1a (2×) and 78 % of Cmp 1a and 67 % of Cmp 1a
Ca2+ signal (% of Cmp 1a) (GPR139 [1]; [7]): 90 % of Cmp 1a and 69 % of Cmp 1a and 85 % of Cmp 1a and 60 % of Cmp 1a
Ca2+ signal (% of Cmp 1a) (GPR139 [1]; [8]): 88 % of Cmp 1a and 51 % of Cmp 1a and 91 % of Cmp 1a and 56 % of Cmp 1a
Ca2+ signal (% of Cmp 1a) (GPR139 [1]; [9]): 56 % of Cmp 1a and 17 % of Cmp 1a and 49 % of Cmp 1a and 18 % of Cmp 1a
Ca2+ signal (% of Cmp 1a) (GPR139 [1]; [10]): 22 % of Cmp 1a and -6 % of Cmp 1a and 11 % of Cmp 1a and 3.64 % of Cmp 1a
Ca2+ signal (% of Cmp 1a) (GPR139 [1]; [11]): 7.61 % of Cmp 1a and -2.54 % of Cmp 1a and 1.82 % of Cmp 1a and 1.21 % of Cmp 1a
Ca2+ signal (% of Cmp 1a) (GPR139 [1]; [12]): 0.854 % of Cmp 1a and 4 % of Cmp 1a and -4.35 % of Cmp 1a and 9 % of Cmp 1a
Ca2+ signal (% of Cmp 1a) (GPR139 [1]; [13]): -1.25 % of Cmp 1a and 0.0327 % of Cmp 1a and -3 % of Cmp 1a and 1.5 % of Cmp 1a
Ca2+ signal (% of Cmp 1a) (GPR139 [1]; [14]): 1 % of Cmp 1a and 0.912 % of Cmp 1a and 6 % of Cmp 1a and 0.231 % of Cmp 1a
Ca2+ signal (% of Cmp 1a) (GPR139 [1]; [15]): 5.27 % of Cmp 1a and -0.036 % of Cmp 1a and 7.38 % of Cmp 1a and 4.27 % of Cmp 1a
Ca2+ signal (% of Cmp 1a) (GPR139 [2]; [16]): 22 % of Cmp 1a and 19 % of Cmp 1a
Ca2+ signal (% of Carbachol) [3, 17]: 0.152 % of Carbachol and 1.48 % of Carbachol and 2 % of Carbachol

O=C(NC1CC12CCCC2)C1CCCN(c2ccccc2)C1=O (stereo not drawn) [Compound 13, O=C(NC1CC21CCCC2)C3CCCN(C3=O)C=4C=CC=CC4]
Ca2+ signal (% of Cmp 1a) (GPR139 [1]; 0.1 µM, individual replicates (Supplementary Figure 3)): -0.35 % of Cmp 1a and -3.4 % of Cmp 1a
Ca2+ signal (% of Cmp 1a) (GPR139 [1]; 1 µM, individual replicates (Supplementary Figure 3)): 5.0 % of Cmp 1a and -6.6 % of Cmp 1a
Ca2+ signal (% of Cmp 1a) (GPR139 [1]; 10 µM, individual replicates (Supplementary Figure 3)): 18.4 % of Cmp 1a and -6.0 % of Cmp 1a
Ca2+ signal (% of Cmp 1a) (GPR139 [1]; Agonist mode, individual replicates (Supplementary Figure 1)): 47 % of Cmp 1a and 33 % of Cmp 1a and 40 % of Cmp 1a
Ca2+ signal (% of Cmp 1a) (GPR139 [1]; primary screen, 10 µM compound, agonist mode, three columns = independent experiments): 47 % of Cmp 1a and 33 % of Cmp 1a and 40 % of Cmp 1a
Ca2+ signal (% of Cmp 1a) (GPR139 [2]; individual replicates (Supplementary Figure 1)): 67.15 % of Cmp 1a and 66.5231 % of Cmp 1a and 65.9874 % of Cmp 1a
Ca2+ signal (% of Carbachol) ([3]; individual replicates (Supplementary Figure 2)): -12 % of Carbachol and -1.24 % of Carbachol

Cc1nc2cc(-c3nc(CC(=O)NC(C)c4ccccc4)no3)ccc2o1 (stereo not drawn) [Compound 1.22, CC(C1=CC=CC=C1)NC(CC2=NOC(C3=CC4=C(OC(C)=N4)C=C3)=N2)=O]
Ca2+ signal (% of Cmp 1a) (GPR139 [1]; [4]): 71 % of Cmp 1a and 37 % of Cmp 1a and 44 % of Cmp 1a
change in potency with larger substituents on the thiophene ring (GPR139 [1]; Ca2+ mobilization): three-fold reduction to a complete loss of activity
EC50 (GPR139 [1]; Supplementary Table 2, mean ± SEM, read-out: pEC50 Ca2+ (converted)): 1580 nM
Emax (GPR139 [1]; [5]): 99 ± 2%
Ca2+ signal (% of Cmp 1a) (GPR139 [1]; [6]): 109 % of Cmp 1a and 96 % of Cmp 1a and 93 % of Cmp 1a and 83 % of Cmp 1a and 99 % of Cmp 1a
Ca2+ signal (% of Cmp 1a) (GPR139 [1]; [7]): 90 % of Cmp 1a and 71 % of Cmp 1a and 95 % of Cmp 1a and 84 % of Cmp 1a and 101 % of Cmp 1a
Ca2+ signal (% of Cmp 1a) (GPR139 [1]; [8]): 58 % of Cmp 1a and 43 % of Cmp 1a and 99 % of Cmp 1a and 59 % of Cmp 1a and 110 % of Cmp 1a
Ca2+ signal (% of Cmp 1a) (GPR139 [1]; [9]): 50 % of Cmp 1a and 22 % of Cmp 1a and 51 % of Cmp 1a and 35 % of Cmp 1a and 73 % of Cmp 1a
Ca2+ signal (% of Cmp 1a) (GPR139 [1]; [10]): 30 % of Cmp 1a and 0.909 % of Cmp 1a and 8 % of Cmp 1a and 29 % of Cmp 1a and 36 % of Cmp 1a
Ca2+ signal (% of Cmp 1a) (GPR139 [1]; [11]): 1.28 % of Cmp 1a and -0.203 % of Cmp 1a and -2.54 % of Cmp 1a and 0.332 % of Cmp 1a and 14 % of Cmp 1a
Ca2+ signal (% of Cmp 1a) (GPR139 [1]; [12]): 1.35 % of Cmp 1a and 7.39 % of Cmp 1a and -10 % of Cmp 1a and -1.26 % of Cmp 1a and 4 % of Cmp 1a
Ca2+ signal (% of Cmp 1a) (GPR139 [1]; [13]): 7 % of Cmp 1a and 10 % of Cmp 1a and -6 % of Cmp 1a and 0.314 % of Cmp 1a and 2.72 % of Cmp 1a
Ca2+ signal (% of Cmp 1a) (GPR139 [1]; [14]): -3.6 % of Cmp 1a and 18 % of Cmp 1a and -4.69 % of Cmp 1a and -1.59 % of Cmp 1a and 9 % of Cmp 1a
Ca2+ signal (% of Cmp 1a) (GPR139 [1]; [15]): -5 % of Cmp 1a and 7.5 % of Cmp 1a and -3.72 % of Cmp 1a and 1.69 % of Cmp 1a and 6.38 % of Cmp 1a
Ca2+ signal (% of Cmp 1a) (GPR139 [2]; [16]): 13 % of Cmp 1a and 39 % of Cmp 1a and 19 % of Cmp 1a
Ca2+ signal (% of Carbachol) [3, 17]: -19 % of Carbachol and -2.46 % of Carbachol and -2.2 % of Carbachol
